Read-outs that look alike come from different tables or passages of the source.

The text below walks through data of patent US9511064B2, “Combination therapy for the treatment of cancer and immunosuppression” (Basilea Pharmaceutica AG, priority 2012, dated 2016).

Test [1] has as its system HL60 tumor cells. Nature of the test: AlamarBlue conversion cell proliferation assay, HL60 cell line. The format is cell-based. Here is the method: (§1) The in vitro anti-proliferative activity of compounds of formula (I), metformin and combinations thereof is tested in an AlamarBlue conversion cell proliferation assay (Promega) on HL60 tumor cells and the mouse mast cell line 6.5 (Colombi et al., Oncogene 2011, 30:1551-65). Cells are seeded into 96-well microtiter plates (seeding cell density is 7,000 cells per well in 150 uL Iscove's medium) and test compounds are added (compounds of formula (I) are added from a 10 mM stock solution in DMSO, metformin from a freshly prepared 1 M solution in culture medium). Plates are incubated for 3 days at 37°, 5% CO2 and proliferation is determined by AlamarBlue staining (0.1 vol % added to cultures and incubated for further 4-5 hours). The conversion of AlamarBlue is proportional to live cell number and is read with a fluorescence plate reader (Ex/Em 535/595 nm). Growth is normalized to the untreated controls.

Test [2] has as its system mouse mast cell line 6.5. The experiment in a line: AlamarBlue conversion cell proliferation assay, 6.5 cell line. The format is cell-based. Here is the method: as §1
[3] abbreviates: combined with 4 mM metformin, 3 days incubation, read-out: concentration that inhibits the proliferation of cells by approximately 50% when combined with 4 mM metformin, HL60 cell line.
The mark [4] stands for this setting: combined with 4 mM metformin, 3 days incubation, read-out: concentration that inhibits the proliferation of cells by approximately 50% when combined with 4 mM metformin, 6.5 cell line.
[5] abbreviates: read-out: concentration that inhibits the proliferation of cells by approximately 50% when combined with 4 mM metformin, HL60 cell line, 3 days incubation.
The mark [6] stands for this setting: read-out: concentration that inhibits the proliferation of cells by approximately 50% when combined with 4 mM metformin, 6.5 cell line, 3 days incubation.

Regarding `COC(=O)[C@H]1[C@H]2C[C@@H]3c4[nH]c5cc(OC)ccc5c4CCN3C[C@H]2C[C@@H](OC(=O)c2cc(OC)c(OC(=O)OCc3cc(F)cc(F)c3)c(OC)c2)[C@@H]1OC` [Example 33], the IC50 in test [1] (setting [3]) and in test [2] (setting [4]) was 2 µM in each case.
With `COC(=O)[C@H]1[C@H]2C[C@@H]3c4[nH]c5cc(OC)ccc5c4CCN3C[C@H]2C[C@@H](OC(=O)c2cc(OC)c(OC(=O)OCc3cccnc3)c(OC)c2)[C@@H]1OC` [Example 7, methyl (1R,15S,17R,18R,19S,20S)-17-[(3,5-dimethoxy-4-{[(pyridin-3-ylmethoxy)carbonyl]oxy}phenyl)carbonyloxy]-6,18-dimethoxy-3,13-diazapentacyclo[11.8.0.0^2,10.0^4,9.0^15,20]henicosa-2(10),4,6,8-tetraene-19-carboxylate], the IC50 in test [1] (setting [3]) turned out to be 2 µM; in test [2] (setting [4]) it was 2.5 µM.
As for `COC(=O)[C@H]1[C@H]2C[C@@H]3c4[nH]c5cc(OC)ccc5c4CCN3C[C@H]2C[C@@H](OC(=O)c2cc(OC)c(OC(=O)Cc3ccccc3)c(OC)c2)[C@@H]1OC` [Example 20, methyl (1R,15S,17R,18R,19S,20S)-17-({3,5-dimethoxy-4-[(2-phenylacetyl)oxy]phenyl}carbonyloxy)-6,18-dimethoxy-3,13-diazapentacyclo[11.8.0.0^2,10.0^4,9.0^15,20]henicosa-2(10),4,6,8-tetraene-19-carboxylate], the IC50 in test [1] (setting [5]) and in test [2] (setting [6]) was 5 µM in each case.
For `COC(=O)[C@H]1[C@H]2C[C@@H]3c4[nH]c5cc(OC)ccc5c4CCN3C[C@H]2C[C@@H](OC(=O)c2cc(OC)c(OC(=O)OCc3ccc(Cl)cc3)c(OC)c2)[C@@H]1OC` [Example 9, methyl (1R,15S,17R,18R,19S,20S)-17-{[4-({[(4-chlorophenyl)methoxy]carbonyl}oxy)-3,5-dimethoxyphenyl]carbonyloxy}-6,18-dimethoxy-3,13-diazapentacyclo[11.8.0.0^2,10.0^4,9.0^15,20]henicosa-2(10),4,6,8-tetraene-19-carboxylate], the IC50 in test [1] (setting [3]) and in test [2] (setting [4]) was 4 µM in each case.
As for `CCOC(=O)Oc1c(OC)cc(C(=O)O[C@@H]2C[C@@H]3CN4CCc5c([nH]c6cc(OC(=O)CNC(=O)c7ccccc7)ccc56)[C@H]4C[C@@H]3[C@H](C(=O)OC)[C@H]2OC)cc1OC` [Example 18, methyl (1R,15S,17R,18R,19S,20S)-17-({4-[(ethoxycarbonyl)oxy]-3,5-dimethoxyphenyl}carbonyloxy)-18-methoxy-6-{[2-(phenylformamido)acetyl]oxy}-3,13-diazapentacyclo[11.8.0.0^2,10.0^4,9.0^15,20]henicosa-2(10),4,6,8-tetraene-19-carboxylate], the IC50 is 1.5 µM in test [1] (setting [3]) and 1 µM in test [2] (setting [4]).
In the same order, the values of `COC(=O)[C@H]1[C@H]2C[C@@H]3c4[nH]c5cc(OC)ccc5c4CCN3C[C@H]2C[C@@H](OC(=O)c2cc(OC)c(OC(=O)OCc3ccc(C(F)(F)F)cc3)c(OC)c2)[C@@H]1OC` [Example 38] are 4 µM and 4 µM.
In the same order, the values of `COC(=O)[C@H]1[C@H]2C[C@@H]3c4[nH]c5cc(OC)ccc5c4CCN3C[C@H]2C[C@@H](OC(=O)c2cc(OC)c(OC(=O)OCc3cccc(Cl)c3)c(OC)c2)[C@@H]1OC` [Example 35] are 2 µM and 2 µM.
For the compound `COC(=O)[C@H]1[C@H]2C[C@@H]3c4[nH]c5cc(OC)ccc5c4CCN3C[C@H]2C[C@@H](OC(=O)c2cc(OC)c(OC(=O)OCc3cccc(C(F)(F)F)c3)c(OC)c2)[C@@H]1OC` [Example 32], the IC50 in test [1] (setting [3]) and in test [2] (setting [4]) was 2 µM throughout.
For `COC(=O)[C@H]1[C@H]2C[C@@H]3c4[nH]c5cc(OC)ccc5c4CCN3C[C@H]2C[C@@H](OC(=O)c2cc(OC)c(OC(=O)OCc3ccccc3)c(OC)c2)[C@@H]1OC` [Example 21, methyl (1R,15S,17R,18R,19S,20S)-17-[(4-{[(benzyloxy)carbonyl]oxy}-3,5-dimethoxyphenyl)carbonyloxy]-6,18-dimethoxy-3,13-diazapentacyclo[11.8.0.0^2,10.0^4,9.0^15,20]henicosa-2(10),4,6,8-tetraene-19-carboxylate], the results for the IC50 in test [1] (setting [5]) and in test [2] (setting [6]) were 3.5 µM and 2 µM, respectively.
In the same order, the values of `CCOC(=O)Oc1c(OC)cc(C(=O)O[C@@H]2C[C@@H]3CN4CCc5c([nH]c6cc(OC(=O)CN)ccc56)[C@H]4C[C@@H]3[C@H](C(=O)OC)[C@H]2OC)cc1OC` [Example 16, methyl (1R,15S,17R,18R,19S,20S)-6-[(2-aminoacetyl)oxy]-17-({4-[(ethoxycarbonyl)oxy]-3,5-dimethoxyphenyl}carbonyloxy)-18-methoxy-3,13-diazapentacyclo[11.8.0.0^2,10.0^4,9.0^15,20]henicosa-2(10),4,6,8-tetraene-19-carboxylate] are 2 µM and 1 µM.
On to `CCOC(=O)Oc1c(OC)cc(C(=O)O[C@@H]2C[C@@H]3CN4CCc5c([nH]c6cc(OC(=O)c7ccccc7)ccc56)[C@H]4C[C@@H]3[C@H](C(=O)OC)[C@H]2OC)cc1OC` [Example 15, methyl (1R,15S,17R,18R,19S,20S)-6-(benzoyloxy)-17-({4-[(ethoxycarbonyl)oxy]-3,5-dimethoxyphenyl}carbonyloxy)-18-methoxy-3,13-diazapentacyclo[11.8.0.0^2,10.0^4,9.0^15,20]henicosa-2(10),4,6,8-tetraene-19-carboxylate], for which the IC50 in test [1] (setting [3]) stood at 2 µM; in test [2] (setting [4]) it was 1.5 µM.
Turning to `CCOC(=O)Oc1c(OC)cc(C(=O)O[C@@H]2C[C@@H]3CN4CCc5c([nH]c6cc(OC(=O)OC(C)(C)C)ccc56)[C@H]4C[C@@H]3[C@H](C(=O)OC)[C@H]2OC)cc1OC` [Example 12, methyl (1R,15S,17R,18R,19S,20S)-6-{[(tert-butoxy)carbonyl]oxy}-17-({4-[(ethoxycarbonyl)oxy]-3,5-dimethoxyphenyl}carbonyloxy)-18-methoxy-3,13-diazapentacyclo[11.8.0.0^2,10.0^4,9.0^15,20]henicosa-2(10),4,6,8-tetraene-19-carboxylate], the IC50 in test [1] (setting [5]) and in test [2] (setting [6]) was 1.5 µM each time.
In the case of `COC(=O)[C@H]1[C@H]2C[C@@H]3c4[nH]c5cc(OC)ccc5c4CCN3C[C@H]2C[C@@H](OC(=O)c2cc(OC)c(OC(=O)OCc3cccc4ccccc34)c(OC)c2)[C@@H]1OC` [Example 34], the figures for the IC50 in test [1] (setting [3]) and in test [2] (setting [4]) were 5 µM and 7.5 µM, respectively.
In the same order, the values of `COC(=O)[C@H]1[C@H]2C[C@@H]3c4[nH]c5cc(OC)ccc5c4CCN3C[C@H]2C[C@@H](OC(=O)c2cc(OC)c(OC(=O)OCc3ccc(F)cc3)c(OC)c2)[C@@H]1OC` [Example 36] are 3 µM and 2.5 µM.
In the case of `CCOC(=O)Oc1c(OC)cc(C(=O)O[C@@H]2C[C@@H]3CN4CCc5c([nH]c6cc(O)ccc56)[C@H]4C[C@@H]3[C@H](C(=O)OC)[C@H]2OC)cc1OC` [Example 13, methyl (1R,15S,17R,18R,19S,20S)-17-({4-[(ethoxycarbonyl)oxy]-3,5-dimethoxyphenyl}carbonyloxy)-6-hydroxy-18-methoxy-3,13-diazapentacyclo[11.8.0.0^2,10.0^4,9.0^15,20]henicosa-2(10),4,6,8-tetraene-19-carboxylate], the IC50 is 2 µM in test [1] (setting [3]) and 1 µM in test [2] (setting [4]).
In the same order, the values of `COC(=O)[C@H]1[C@H]2C[C@@H]3c4[nH]c5cc(OC)ccc5c4CCN3C[C@H]2C[C@@H](OC(=O)c2cc(OC)c(OC(=O)OCc3cccc(Br)c3)c(OC)c2)[C@@H]1OC` [Example 31] are 2 µM and 2 µM.
In the same order, the values of `CCOC(=O)Oc1c(OC)cc(C(=O)O[C@@H]2C[C@@H]3CN4CCc5c([nH]c6cc(OC(=O)CNC(C)=O)ccc56)[C@H]4C[C@@H]3[C@H](C(=O)OC)[C@H]2OC)cc1OC` [Example 17, methyl (1R,15S,17R,18R,19S,20S)-6-[(2-acetamidoacetyl)oxy]-17-({4-[(ethoxycarbonyl)oxy]-3,5-dimethoxyphenyl}carbonyloxy)-18-methoxy-3,13-diazapentacyclo[11.8.0.0^2,10.0^4,9.0^15,20]henicosa-2(10),4,6,8-tetraene-19-carboxylate] are 1.5 µM and 1 µM.
As to `COC(=O)[C@H]1[C@H]2C[C@@H]3c4[nH]c5cc(OC)ccc5c4CCN3C[C@H]2C[C@@H](OC(=O)c2cc(OC)c(OC(=O)OCc3cc(OC)cc(OC)c3)c(OC)c2)[C@@H]1OC` [Example 8, methyl (1R,15S,17R,18R,19S,20S)-17-{[4-({[(3,5-dimethoxyphenyl)methoxy]carbonyl}oxy)-3,5-dimethoxyphenyl]carbonyloxy}-6,18-dimethoxy-3,13-diazapentacyclo[11.8.0.0^2,10.0^4,9.0^15,20]henicosa-2(10),4,6,8-tetraene-19-carboxylate], the IC50 in test [1] (setting [3]) is 4 µM; in test [2] (setting [4]), 5 µM.
